Test results as given in paper PMC9794608 (Frontiers in Veterinary Science, 2022).

What was measured:
mice = tested on: mice; set-up: method as in PMID 32943547; settings: cited from earlier work
laboratory beagle dogs [1] = assay: Repeat dose tolerability: clinical observations, hematology, serum chemistry, coagulation, urinalysis; assay type: in vivo
Experimental: Laboratory Beagle dogs (Charles River Labs, Mattawan, MI) served as surrogates in testing compounds proposed for application in canine clinical cancer care. The animals were at least six months old and weighed 6.4–8.8 kg at the initiation of study. They had routine veterinary care and had not been used in any previous studies. The study was conducted in AAALAC-accredited animal facilities [Charles River Laboratories, Inc., Mattawan, MI; NIH Office of Laboratory Animal Welfare Assurance approval (https://olaw.nih.gov/assured/app/index.html)], under review, monitoring, and approval of the facility's Institutional Animal Care and Use Committee according to U.S. Public Health Service national guidelines and regulations for the care and use of laboratory animals. The study was not designed to incorporate Good Laboratory Practices (GLP) regulatory criteria. Animals on study were monitored daily or more frequently and body weights were recorded, while periodic specimens were obtained for laboratory analyses. Clinical pathology analyses were included for hematology, serum chemistry, coagulation, urinalysis, and chemical bioanalysis was accomplished for pharmacokinetics (PK) (Table 1, repeat dose study) (Charles River Laboratories, Mattawan, MI).
Six male and six female beagle dogs were enrolled in a parallel, three-arm, fixed, repeat oral-dose study. […] All dogs were dosed on study day 1 to obtain single dose PK samples, and then dosed serially days 4–20. Dogs were fasted overnight prior to dosing and fed ad libitum 2 h (hrs) following dose administration.
On days 10 and 15, a 2-h post-dose sample was collected. […] Treatment schedule and clinical pathology specimen sampling intervals are outlined in Table 1. […]
Sampling for hematology, serum chemistry, coagulation and urinalysis was conducted to facilitate monitoring treatment effects over various time points, and values obtained were compared to pre-treatment measurements for each subject (Table 1).

laboratory beagle dogs [2] = assay: Sapanisertib escalating oral dose tolerability assessment; assay type: in vivo
Experimental: Determining a 0.1 mg/kg sapanisertib dosage for repeat dose studies was based upon extrapolation of previous studies in mice ([13], [20]), leading to initial evaluation of escalating individual oral doses of 0.1, 0.5, 0.65, and 0.8 mg/kg in one male (M), and one female (F) dog with a ≥3-day washout period between doses.
The initial efforts with sapanisertib focused on dose selection for ultimate testing in combination with orally administered trametinib dimethyl sulfoxide (trametinib) in nontumor-bearing laboratory beagle dogs. […] Sapanisertib dose escalation consisted of increased individual doses beginning with 0.10 mg/kg sapanisertib followed by a washout period of at least 3 days, and up to 7 days, between doses (Figure 2). Dogs lost body weight when dosed with ≥0.5 mg/kg sapanisertib. By day 23, the male dog had lost approximately 19% of initial body weight, while the female dog lost 7% body weight, and sapanisertib exposure was discontinued (Figure 2A). There was a trend toward recovery of modest amounts of body weight in these two dogs with the passage of sufficient time, post dose.
Figure 2 Sapanisertib escalating oral dose tolerability assessment in dogs. […] (A) Body weight (b.w.) changes with respect to time of first dose, in response to dosing as indicated. (B) Sapanisertib impact on select clinical pathology parameters for the testing days shown on x axis. Values on the y axis represent pre-treatment samples (0 days). Yellow-shaded area indicates reference range of values for normal healthy beagle dogs (Charles River Labs). Serum enzymes: ALT, alanine aminotransferase; AST, aspartate aminotransferase; ALP, alkaline phosphatase.

[3] = by day 23, escalating oral doses 0.1, 0.5, 0.65, 0.8 mg/kg
[4] = ≥ 0.5 mg/kg, both sexes, as low as

In the case of CC(C)n1nc(-c2ccc3oc(N)nc3c2)c2c(N)ncnc21 [Sapanisertib], the “Kidney findings in mice, every other day dosing” value (mice; mice, […] sapanisertib every other day) is given as “did not exhibit substantive AKI”, the “Kidney findings in mice, daily dosing” value (mice; some mice given […] sapanisertib daily) is given as “acute kidney injury (AKI) with moderate histopathological cortical tubular epithelial degeneration and necrosis” and the “Serum ALT, times pre-study” value (laboratory beagle dogs [1]; Day 20, one female dog (23502), considered unlikely to be inhibitor related) is given as 2.10 x. The “Dogs with minimal to marked increases in urine protein concentration” value (laboratory beagle dogs [1]; Day 25, greater than pre-study values, 4 dogs per group) was “three of four”, the “Urine protein concentration, highest value (up to)” value (laboratory beagle dogs [1]; Day 25, semi-quantitatively by urine dipstick) was ≥ 1,000 mg/dL and the “Urine glucose (up to)” value (laboratory beagle dogs [1]; Day 25, semi-quantitatively by urine dipstick, individuals of both sexes) was “up to 250 mg/dL”. The “Urine pH (up to)” value (laboratory beagle dogs [1]; Day 25, Group 2 males and both sexes in Group 3) was no less than 9.0 pH, the “Activated partial thromboplastin time (APTT) prolonged, times pretreatment (up to)” value (laboratory beagle dogs [1]; Days 6, 11, 15, 22, and/or 25, individual dogs, within normal reference range) was “up to 1.21 x” and the “Serum phosphorus concentrations, times pre-study (as low as)” value (laboratory beagle dogs [1]; Days 7 and 20, both sexes in all groups) was no less than 0.74 x. For the same compound, the “Cholesterol concentrations, times pre-study (up to)” value (laboratory beagle dogs [1]; Days 7 and 20, both sexes in Group 2 and males in Group 3) was “up to 1.50 x”, the “Group mean APTT versus dogs given trametinib alone” value (laboratory beagle dogs [1]; at 11 days and thereafter, p < 0.05) was “significantly different” and the “Prothrombin time (PT) assays” value (laboratory beagle dogs [1]; compared to pretreatment samples) was “No analogous effect”. The “Blood neutrophils, times individual pre-study values” (laboratory beagle dogs [1]; one male (23002) and one female (23501), Group 2, days 20 and 25, up to) was “up to 1.95 x”, the “Individual animal fibrinogen concentration, times pretreatment (up to)” value (laboratory beagle dogs [1]; various time points, most pronounced in Group 3) was “up to 2.61 x” and the “Serum chloride, times the pre-study value” (laboratory beagle dogs [2]; 0.8 mg/kg, male) was 0.89 x. For the same compound, the “Serum sodium, times the pre-study value” (laboratory beagle dogs [2]; 0.8 mg/kg, male) was 0.98 x, the “Loss of body weight, female dog” value (laboratory beagle dogs [2]; [3]) was 7% and the “Loss of initial body weight, male dog” value (laboratory beagle dogs [2]; [3]) was “approximately 19%”. For the same compound, the “Dose at which dogs lost body weight” value (laboratory beagle dogs [2]; individual oral doses, 1 male and 1 female) was no less than 0.5 mg/kg, the “Red blood cell reticulocyte counts” value (laboratory beagle dogs [2]; ≥ 0.5 mg/kg, both sexes) was “moderate to marked decreases” and the Serum cholesterol concentrations (laboratory beagle dogs [2]; ≥ 0.5 mg/kg, both sexes) was “minimal to mild increases”. For the same compound, the “Alanine aminotransferase (ALT), times the pre-study value” (laboratory beagle dogs [2]; [4]) was no less than 0.41 x, the “Aspartate aminotransferase (AST), times the pre-study value” (laboratory beagle dogs [2]; [4]) was no less than 0.68 x and the “Serum alkaline phosphatase (ALP), times the pre-study value” (laboratory beagle dogs [2]; [4]) was no less than 0.36 x.
